Test results reported in PubChem BioAssay AID256 (DTP/NCI, 2004).
“And” between values parts separate entries of the source, which are not always exact repeats. Identical values can stand only once. Inconclusive results and toxic doses are left out. How the source made its calls: active means survival T/C of 150% or more; inactive means T/C below 125% in these data.

Test system: CD2F1 mice, L1210 leukemia ip, survival T/C
Assay: NCI In Vivo Anticancer Drug Screen. Data for tumor model L1210 Leukemia (intraperitoneal) in CD2F1 (CDF1) mice
Conditions: endpoint: mean survival time, higher = longer survival
Outline: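 Activity against a transplanted murine tumor was judged by comparing the compound group with a vehicle group. The outcome in the treated animals was divided by that in the controls.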

[1] = dose: 6.25 mg/kg/injection, schedule: Q01DX009 (ip), vehicle: saline with Tween-80
[2] = dose: 12.5 mg/kg/injection, schedule: Q01DX009 (ip), vehicle: saline with Tween-80
[3] = dose: 25.0 mg/kg/injection, schedule: Q01DX009 (ip), vehicle: saline with Tween-80
[4] = dose: 100.0 mg/kg/injection, schedule: Q01DX009 (ip), vehicle: Klucel (hydroxypropylcellulose) (HPC)
[5] = dose: 200.0 mg/kg/injection, schedule: Q01DX009 (ip), vehicle: Klucel (hydroxypropylcellulose) (HPC)
[6] = dose: 400.0 mg/kg/injection, schedule: Q01DX009 (ip), vehicle: Klucel (hydroxypropylcellulose) (HPC)
[7] = dose: 100.0 mg/kg/injection, schedule: Q04DX003 (ip), vehicle: saline with Tween-80
[8] = dose: 200.0 mg/kg/injection, schedule: Q04DX003 (ip), vehicle: saline with Tween-80
[9] = dose: 400.0 mg/kg/injection, schedule: Q04DX003 (ip), vehicle: saline with Tween-80

Measured: T/C

Nc1ccc(C(OC(=O)c2cc3ccccc3c(Cc3c(O)c(C(=O)OC(c4ccc(N)cc4)(c4ccc(N)cc4)c4ccc(N)cc4)cc4ccccc34)c2O)(c2ccc(N)cc2)c2ccc(N)cc2)cc1
inactive: dose: 0.78 mg/kg/injection, schedule: Q01DX009 (ip), vehicle: saline with Tween-80 100 % of control and 111 % of control | dose: 1.56 mg/kg/injection, schedule: Q01DX009 (ip), vehicle: saline with Tween-80 123 % of control and 102 % of control | dose: 3.12 mg/kg/injection, schedule: Q01DX009 (ip), vehicle: saline with Tween-80 105 % of control | dose: 3.13 mg/kg/injection, schedule: Q01DX009 (ip), vehicle: saline with Tween-80 101 % of control | [1] 104 % of control and 107 % of control | [2] 88 % of control and 110 % of control | [3] 101 % of control

Brc1ccc2[nH]c3c(c2c1)CSc1ccccc1-3
inactive: [4] 104 % of control | [5] 108 % of control | [6] 112 % of control

CC(=O)CC(OC(C)=O)(C(F)(F)F)C(F)(F)F
inactive: dose: 25.0 mg/kg/injection, schedule: Q04DX002 (ip), vehicle: saline 98 % of control | dose: 50.0 mg/kg/injection, schedule: Q04DX002 (ip), vehicle: saline 102 % of control | dose: 100.0 mg/kg/injection, schedule: Q04DX003 (ip), vehicle: Klucel (hydroxypropylcellulose) (HPC) 90 % of control

NC(=O)N/N=C/COC(=O)c1ccccc1
inactive: dose: 100.0 mg/kg/injection, schedule: Q01DX001 (ip), vehicle: saline with Tween-80 93 % of control | dose: 200.0 mg/kg/injection, schedule: Q01DX001 (ip), vehicle: saline with Tween-80 91 % of control | dose: 400.0 mg/kg/injection, schedule: Q01DX001 (ip), vehicle: saline with Tween-80 98 % of control

CC1Sc2ccccc2-c2[nH]c3ccccc3c21 (centres undefined)
inactive: [7] 97 % of control | [8] 87 % of control | [9] 90 % of control

CC(C)(C)CC(C)(C)c1ccc(OCCOc2ccc(C(=O)Nc3ccc(S(=O)(=O)Oc4ccccc4)cc3)cc2[N+](=O)[O-])cc1
inactive: [4] 101 % of control | [7] 98 % of control | [5] 106 % of control | [8] 93 % of control | [6] 95 % of control | [9] 92 % of control

Cc1cc(N(C)C)c(C(C)C)cc1O (tested in a mixture with another compound)
inactive: dose: 32.0 micrograms/kg/injection, schedule: Q04DX003 (ip), vehicle: saline 104 % of control | dose: 63.0 micrograms/kg/injection, schedule: Q01DX001 (ip), vehicle: saline 112 % of control | dose: 63.0 micrograms/kg/injection, schedule: Q04DX003 (ip), vehicle: saline 98 % of control | dose: 125.0 micrograms/kg/injection, schedule: Q01DX001 (ip), vehicle: saline 112 % of control | dose: 125.0 micrograms/kg/injection, schedule: Q04DX003 (ip), vehicle: saline 101 % of control

O/N=C(/Cl)c1ccccn1
inactive: dose: 1.88 mg/kg/injection, schedule: Q04DX003 (ip), vehicle: saline 102 % of control | dose: 3.75 mg/kg/injection, schedule: Q04DX003 (ip), vehicle: saline 94 % of control | dose: 7.5 mg/kg/injection, schedule: Q01DX001 (ip), vehicle: saline 101 % of control | dose: 7.5 mg/kg/injection, schedule: Q04DX003 (ip), vehicle: saline 94 % of control

CCCC(=O)Nc1cc2c3c(c1)CCCN3CCC2
inactive: [1] 97 % of control | [2] 97 % of control | [3] 98 % of control

CCOc1ccc(Nc2ncnc3nc[nH]c23)cc1CN(CCCl)CCCl
inactive: dose: 2.0 mg/kg/injection, schedule: Q01DX009 (ip), vehicle: saline sonified 116 % of control | dose: 4.0 mg/kg/injection, schedule: Q01DX009 (ip), vehicle: saline sonified 117 % of control | dose: 8.0 mg/kg/injection, schedule: Q01DX009 (ip), vehicle: saline sonified 116 % of control

NC(Cc1cc(I)c(Oc2cc(I)c(O)c(I)c2)c(I)c1)C(=O)O (centres undefined)
inactive: dose: 0.04 mg/kg/injection, schedule: Q01DX009 (ip), vehicle: saline + alcohol 96 % of control | dose: 0.04 mg/kg/injection, schedule: Q01DX009 (ip), vehicle: saline 88 % of control and 96 % of control | dose: 0.16 mg/kg/injection, schedule: Q01DX009 (ip), vehicle: saline + alcohol 102 % of control | dose: 0.16 mg/kg/injection, schedule: Q01DX009 (ip), vehicle: saline 91 % of control and 98 % of control | dose: 0.25 mg/kg/injection, schedule: Q01DX009 (ip), vehicle: saline 93 % of control | dose: 0.63 mg/kg/injection, schedule: Q01DX009 (ip), vehicle: saline 94 % of control | dose: 0.64 mg/kg/injection, schedule: Q01DX009 (ip), vehicle: saline + alcohol 94 % of control | dose: 0.64 mg/kg/injection, schedule: Q01DX009 (ip), vehicle: saline 87 % of control and 94 % of control | dose: 1.0 mg/kg/injection, schedule: Q01DX009 (ip), vehicle: saline 96 % of control | dose: 2.0 mg/kg/injection, schedule: Q01DX009 (ip), vehicle: saline 88 % of control | dose: 2.5 mg/kg/injection, schedule: Q01DX009 (ip), vehicle: saline + alcohol 93 % of control | dose: 2.5 mg/kg/injection, schedule: Q01DX009 (ip), vehicle: saline 91 % of control and 92 % of control and 94 % of control | dose: 8.0 mg/kg/injection, schedule: Q01DX009 (ip), vehicle: saline 86 % of control and 88 % of control and 90 % of control | dose: 10.0 mg/kg/injection, schedule: Q01DX009 (ip), vehicle: saline + alcohol 94 % of control | dose: 10.0 mg/kg/injection, schedule: Q01DX009 (ip), vehicle: saline 89 % of control and 90 % of control and 92 % of control | dose: 16.0 mg/kg/injection, schedule: Q01DX009 (ip), vehicle: saline 86 % of control and 89 % of control | dose: 32.0 mg/kg/injection, schedule: Q01DX009 (ip), vehicle: saline 83 % of control and 89 % of control | dose: 40.0 mg/kg/injection, schedule: Q01DX009 (ip), vehicle: saline 88 % of control | dose: 64.0 mg/kg/injection, schedule: Q01DX009 (ip), vehicle: saline 87 % of control and 89 % of control | dose: 128.0 mg/kg/injection, schedule: Q01DX009 (ip), vehicle: saline 87 % of control and 90 % of control

CC(=O)C(=O)C1=C2CCCN2CCc2cc3c(cc21)OCO3
inactive: dose: 12.5 mg/kg/injection, schedule: Q01DX009 (ip), vehicle: water 96 % of control | dose: 25.0 mg/kg/injection, schedule: Q01DX009 (ip), vehicle: water 94 % of control | dose: 50.0 mg/kg/injection, schedule: Q01DX009 (ip), vehicle: water 91 % of control | dose: 100.0 mg/kg/injection, schedule: Q01DX009 (ip), vehicle: water 96 % of control

C1=CC2C3=CC1C=CC32 (centres undefined)
inactive: dose: 100.0 mg/kg/injection, schedule: Q01DX009 (ip), vehicle: acetone 92 % of control | dose: 200.0 mg/kg/injection, schedule: Q01DX009 (ip), vehicle: acetone 95 % of control

CN(CC(=O)O)C(=N)N
inactive: dose: 250.0 mg/kg/injection, schedule: Q01DX Z (ip), vehicle: saline 96 % of control | dose: 500.0 mg/kg/injection, schedule: Q01DX Z (ip), vehicle: saline 96 % of control | dose: 1000.0 mg/kg/injection, schedule: Q01DX Z (ip), vehicle: saline 100 % of control

COc1ccc(/C(C)=N/N=C\c2cc(OC)c(OC)c(OC)c2)cc1
inactive: dose: 100.0 mg/kg/injection, schedule: Q01DX009 (ip), vehicle: saline with Tween-80 91 % of control | dose: 200.0 mg/kg/injection, schedule: Q01DX009 (ip), vehicle: saline with Tween-80 89 % of control | dose: 400.0 mg/kg/injection, schedule: Q01DX009 (ip), vehicle: saline with Tween-80 88 % of control

COc1cc2nc(C(O)C(O)c3nc4cc(OC)c(OC)cc4[nH]3)[nH]c2cc1OC (centres undefined)
inactive: [7] 101 % of control | [8] 98 % of control
